{"source": "patent US20240343733A1", "about": "“COMPOUNDS FOR TARGETING DEGRADATION OF IRAK4 PROTEINS” (BIOGEN MA INC., priority 2021, published 2024)", "data": [{"biological_target": "T1, IRAK4 (Homo sapiens, UniProt Q9NWZ3)", "T1 construct": "293Tcells expressing HiBiT-tagged IRAK4 were then added into 384-well plates", "T1 sequence (Q9NWZ3 1-460)": "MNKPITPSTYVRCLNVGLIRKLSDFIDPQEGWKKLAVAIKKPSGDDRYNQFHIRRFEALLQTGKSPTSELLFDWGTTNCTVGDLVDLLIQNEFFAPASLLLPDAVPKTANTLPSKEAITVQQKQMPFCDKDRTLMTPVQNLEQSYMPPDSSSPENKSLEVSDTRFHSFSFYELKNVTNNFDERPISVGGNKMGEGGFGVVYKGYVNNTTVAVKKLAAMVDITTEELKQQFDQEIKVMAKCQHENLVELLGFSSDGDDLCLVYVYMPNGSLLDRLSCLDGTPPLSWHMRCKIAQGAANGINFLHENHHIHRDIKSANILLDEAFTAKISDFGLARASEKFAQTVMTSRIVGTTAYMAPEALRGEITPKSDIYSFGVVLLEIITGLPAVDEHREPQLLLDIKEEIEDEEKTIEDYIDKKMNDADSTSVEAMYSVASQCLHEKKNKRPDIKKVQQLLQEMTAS", "assay": "IRAK4 Degradation Assay, HiBiT Method", "format": "cell-based", "settings": "293T cells expressing HiBiT-tagged IRAK4, 6 hours", "summary_of_the_method": "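Luminescent read-out with Nano-Glo HiBiT lytic reagent after 6 h compound exposure at 37 °C. Cells were HiBiT-IRAK4 knock-in 293T (C-terminal tag), 10,000 per well. Compounds ran as 11-point half-log dilutions from […] highest dose, duplicate wells; DMSO served as negative control.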", "units": {"DC50": "nM"}, "values": [{"smiles": "CC(C)Oc1cc2nn([C@H]3CC[C@H](CN4CC[C@@H](c5ncc(NC6CCC(=O)NC6=O)cc5F)[C@H](O)C4)CC3)cc2cc1C(=O)Nc1cccn([C@H]2C[C@H]2F)c1=O", "note": "(stereo partly drawn) [Example 136, 2-((1S,4S)-4-(((3S,4S)-4-(5-((2,6-dioxopiperidin-3-yl)amino)-3-fluoropyridin-2-yl)-3-hydroxypiperidin-1-yl)methyl)cyclohexyl)-N-(1-((1S,2R)-2-fluorocyclopropyl)-2-oxo-1,2-dihydropyridin-3-yl)-6-isopropoxy-2H-indazole-5-carboxamide]", "DC50": "< 10"}, {"smiles": "CC(C)Oc1cc2nc([C@H]3CC[C@H](CN4CC[C@H](c5ccc6c(N7CCC(=O)NC7=O)nn(C)c6c5)[C@H](O)C4)CC3)cn2cc1C(=O)Nc1cnn2cccnc12", "note": "[Example 177, 2-((1S,4r)-4-(((3S,4R)-4-(3-(2,4-dioxotetrahydropyrimidin-1(2H)-yl)-1-methyl-1H-indazol-6-yl)-3-hydroxypiperidin-1-yl)methyl)cyclohexyl)-7-isopropoxy-N-(pyrazolo[1,5-a]pyrimidin-3-yl)imidazo[1,2-a]pyridine-6-carboxamide]", "DC50": "< 10"}, {"smiles": "CC(C)Oc1cc2nc([C@H]3CC[C@H](CN(C)C4CCN(Cc5ccc(NC6CCC(=O)NC6=O)cc5)CC4)CC3)cn2cc1C(=O)Nc1cccc(C(F)F)n1", "note": "(some centres unmarked) [Example 32, N-[6-(difluoromethyl)-2-pyridyl]-2-[4-[[[1-[[4-[(2,6-dioxo-3-piperidyl)amino]phenyl]methyl]-4-piperidyl]-methyl-amino]methyl]cyclohexyl]-7-isopropoxy-imidazo[1,2-a]pyridine-6-carboxamide]", "DC50": "100 to 500"}, {"smiles": "CC(C)Oc1cc2nc([C@H]3CC[C@H](C(=O)NC4CCN(c5ccc(C6CCC(=O)NC6=O)cn5)CC4)CC3)cn2cc1C(=O)Nc1cnn2cccnc12", "note": "(some centres unmarked) [Example 182, 2-((1r,4r)-4-((1-(5-(2,6-dioxopiperidin-3-yl)pyridin-2-yl)piperidin-4-yl)carbamoyl)cyclohexyl)-7-isopropoxy-N-(pyrazolo[1,5-a]pyrimidin-3-yl)imidazo[,2-a]pyridine-6-carboxamide]", "DC50": "< 10"}, {"smiles": "CC(C)Oc1cc2nc([C@H]3CC[C@H](CN(C)C4CCN(c5ccc(NC6CCC(=O)NC6=O)cc5)CC4)CC3)cn2cc1C(=O)Nc1cccc(C(F)F)n1", "note": "(some centres unmarked) [Example 20, N-[6-(difluoromethyl)-2-pyridyl]-2-[4-[[[1-[4-[(2,6-dioxo-3-piperidyl)amino]phenyl]-4-piperidyl]-methyl-amino]methyl]cyclohexyl]-7-isopropoxy-imidazo[1,2-a]pyridine-6-carboxamide]", "DC50": "10 to 100"}, {"smiles": "CC(C)Oc1cc2nc([C@H]3CC[C@H](CN4CCC(c5cccc(NC6CCC(=O)NC6=O)c5)CC4)CC3)cn2cc1C(=O)Nc1cccc(C(F)F)n1", "note": "(some centres unmarked) [Example 26, N-[6-(difluoromethyl)-2-pyridyl]-2-[4-[[4-[3-[(2,6-dioxo-3-piperidyl)amino]phenyl]-1-piperidyl]methyl]cyclohexyl]-7-isopropoxy-imidazo[1,2-a]pyridine-6-carboxamide]", "DC50": "100 to 500"}, {"smiles": "CC(C)Oc1cc2nn([C@H]3CC[C@H](CN4CC5(CCN(c6ncc(C7CCC(=O)NC7=O)cc6F)CC5)C4)CC3)cc2cc1C(=O)Nc1cnn2cccnc12", "note": "(some centres unmarked) [Example 117, 2-((1r,4r)-4-((7-(5-(2,6-dioxopiperidin-3-yl)-3-fluoropyridin-2-yl)-2,7-diazaspiro[3.5]nonan-2-yl)methyl)cyclohexyl)-6-isopropoxy-N-(pyrazolo[1,5-a]pyrimidin-3-yl)-2H-indazole-5-carboxamide]", "DC50": "< 10"}, {"smiles": "CC(C)Oc1cc2nc(C3CCN(C(=O)CC4CCN(c5ccc6c([C@@H]7CCC(=O)NC7=O)nn(C)c6c5)CC4)CC3)cn2cc1C(=O)Nc1cccc(C(F)F)n1", "note": "[Example 92, (S)—N-(6-(difluoromethyl)pyridin-2-yl)-2-(1-(2-(1-(3-(2,6-dioxopiperidin-3-yl)-1-methyl-1H-indazol-6-yl)piperidin-4-yl)acetyl)piperidin-4-yl)-7-isopropoxyimidazo[1,2-a]pyridine-6-carboxamide]", "DC50": "10 to 100"}]}]}
